Results reported in ChEMBL document CHEMBL1135130, “Substituted tetrahydrofuroyl-1-phenylalanine derivatives as potent and specific VLA-4 antagonists” (Bioorg Med Chem Lett, 2002).

How the values were obtained:
Integrin alpha-4/beta-1 [1] = biological target: T1, Integrin alpha-4/beta-1 (Homo sapiens, UniProt P05556+P13612); experiment: Inhibition of alpha4-beta1 (very late) antigen binding with VCAM-1 immunoglobulin plus 5% human plasma; assay type: cell-free
[2] = Plasma clearance determined; assay type: ADME, organism-based; details: read-out: Clp
[3] = biological target: Integrin alpha-4/beta-7 (Homo sapiens) (UniProt P13612+P26010); experiment: Selectivity for alpha4-beta7 to that of alpha4-beta1; assay type: protein-complex assay
Integrin alpha-4/beta-1 [4] = biological target: T1, Integrin alpha-4/beta-1; experiment: Inhibition of alpha4-beta1 (very late) antigen binding with VCAM-1 immunoglobulin; assay type: protein-complex assay
Integrin alpha-4/beta-7 [5] = biological target: T2, Integrin alpha-4/beta-7 (Homo sapiens, UniProt P13612+P26010); experiment: Inhibition of alpha4-beta7 antigen with MAdCAM immunoglobulin; assay type: protein-complex assay
T2 sequence (P13612 whole entry): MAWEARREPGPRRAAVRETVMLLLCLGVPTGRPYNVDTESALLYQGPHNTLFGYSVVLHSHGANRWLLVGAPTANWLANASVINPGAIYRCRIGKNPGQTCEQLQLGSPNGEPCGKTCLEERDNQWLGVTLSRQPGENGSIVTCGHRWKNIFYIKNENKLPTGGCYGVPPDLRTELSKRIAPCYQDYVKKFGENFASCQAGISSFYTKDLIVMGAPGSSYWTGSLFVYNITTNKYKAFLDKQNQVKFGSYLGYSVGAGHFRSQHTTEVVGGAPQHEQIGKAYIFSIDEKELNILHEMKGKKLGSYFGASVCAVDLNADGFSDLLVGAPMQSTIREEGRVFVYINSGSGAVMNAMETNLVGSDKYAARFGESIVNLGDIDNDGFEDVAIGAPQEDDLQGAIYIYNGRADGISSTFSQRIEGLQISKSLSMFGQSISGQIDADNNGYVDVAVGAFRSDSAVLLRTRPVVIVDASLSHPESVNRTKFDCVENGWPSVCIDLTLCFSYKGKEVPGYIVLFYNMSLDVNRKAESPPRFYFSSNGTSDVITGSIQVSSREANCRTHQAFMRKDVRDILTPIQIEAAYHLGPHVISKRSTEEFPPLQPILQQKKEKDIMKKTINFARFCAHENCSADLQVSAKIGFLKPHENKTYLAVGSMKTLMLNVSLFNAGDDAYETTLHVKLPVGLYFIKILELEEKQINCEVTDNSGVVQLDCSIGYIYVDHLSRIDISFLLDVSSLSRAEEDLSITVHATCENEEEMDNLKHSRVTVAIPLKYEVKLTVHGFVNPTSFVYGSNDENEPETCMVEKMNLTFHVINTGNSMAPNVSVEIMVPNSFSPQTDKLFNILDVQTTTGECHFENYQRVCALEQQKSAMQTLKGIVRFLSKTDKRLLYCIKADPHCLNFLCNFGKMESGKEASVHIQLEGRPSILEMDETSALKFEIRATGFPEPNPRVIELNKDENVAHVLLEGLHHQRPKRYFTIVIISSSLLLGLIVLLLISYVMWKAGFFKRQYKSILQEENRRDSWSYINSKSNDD
T2 sequence (P26010 whole entry): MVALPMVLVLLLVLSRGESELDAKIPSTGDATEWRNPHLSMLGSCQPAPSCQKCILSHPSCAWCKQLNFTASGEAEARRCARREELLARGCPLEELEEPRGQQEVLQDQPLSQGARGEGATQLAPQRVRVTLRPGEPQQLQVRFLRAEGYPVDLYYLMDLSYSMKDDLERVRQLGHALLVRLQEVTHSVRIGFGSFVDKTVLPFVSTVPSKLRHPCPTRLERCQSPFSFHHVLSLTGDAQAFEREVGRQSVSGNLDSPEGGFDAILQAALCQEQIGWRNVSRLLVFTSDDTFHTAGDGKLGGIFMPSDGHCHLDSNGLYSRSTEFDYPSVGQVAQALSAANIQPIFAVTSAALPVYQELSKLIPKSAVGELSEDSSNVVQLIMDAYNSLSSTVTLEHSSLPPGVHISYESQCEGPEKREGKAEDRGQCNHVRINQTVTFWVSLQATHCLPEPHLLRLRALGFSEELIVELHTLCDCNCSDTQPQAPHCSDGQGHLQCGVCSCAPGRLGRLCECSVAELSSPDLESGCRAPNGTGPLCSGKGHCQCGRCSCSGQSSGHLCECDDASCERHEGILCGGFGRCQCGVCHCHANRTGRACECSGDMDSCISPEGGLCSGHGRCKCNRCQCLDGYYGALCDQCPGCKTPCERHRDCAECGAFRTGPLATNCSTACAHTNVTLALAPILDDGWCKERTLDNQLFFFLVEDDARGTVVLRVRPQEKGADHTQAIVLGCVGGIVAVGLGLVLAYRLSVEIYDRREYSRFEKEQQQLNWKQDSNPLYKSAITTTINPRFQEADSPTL

[6] = Oral bioavailability; assay type: ADME, organism-based; details: eutheria, in vivo
Integrin alpha-4/beta-7 [7] = biological target: T2, Integrin alpha-4/beta-7; experiment: Inhibition of alpha4-beta7 integrin binding to MAdCAM immunoglobulin; assay type: protein-complex assay
[8] = Selectivity for alpha4-beta7 over alpha4-beta1 integrins

T1 sequence (P05556 whole entry, one chain of several): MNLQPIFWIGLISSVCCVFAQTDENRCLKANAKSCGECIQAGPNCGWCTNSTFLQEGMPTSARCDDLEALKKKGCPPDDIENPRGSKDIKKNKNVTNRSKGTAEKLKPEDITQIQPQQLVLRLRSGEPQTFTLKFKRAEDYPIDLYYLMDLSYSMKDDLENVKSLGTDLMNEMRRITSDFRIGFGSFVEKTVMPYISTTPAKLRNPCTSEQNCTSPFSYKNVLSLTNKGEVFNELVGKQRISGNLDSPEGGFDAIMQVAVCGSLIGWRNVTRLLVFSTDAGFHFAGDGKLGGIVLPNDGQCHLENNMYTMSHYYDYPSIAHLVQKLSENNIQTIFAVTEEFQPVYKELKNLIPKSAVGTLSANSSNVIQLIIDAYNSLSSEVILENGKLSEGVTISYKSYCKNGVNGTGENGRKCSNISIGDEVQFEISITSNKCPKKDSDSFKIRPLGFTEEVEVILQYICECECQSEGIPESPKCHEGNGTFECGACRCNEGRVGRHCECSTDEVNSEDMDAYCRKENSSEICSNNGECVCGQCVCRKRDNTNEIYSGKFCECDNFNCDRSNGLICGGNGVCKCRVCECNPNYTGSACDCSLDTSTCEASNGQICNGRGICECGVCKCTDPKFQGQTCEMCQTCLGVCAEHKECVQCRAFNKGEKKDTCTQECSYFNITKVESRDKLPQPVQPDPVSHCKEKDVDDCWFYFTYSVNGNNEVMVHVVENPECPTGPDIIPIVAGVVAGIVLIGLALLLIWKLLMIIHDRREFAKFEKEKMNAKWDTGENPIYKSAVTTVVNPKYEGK

IC50 (Integrin alpha-4/beta-1 [1])	clearance [2]	Ratio [3]	IC50 (Integrin alpha-4/beta-1 [4])	IC50 (Integrin alpha-4/beta-7 [5])	bioavailability [6]	IC50 (Integrin alpha-4/beta-7 [7])	Ratio [8]	SMILES
3.61 nM	2.9 mL/min/kg	21	0.34 nM	7.09 nM	51%	–	–	COc1cccc(OC)c1-c1ccc(C[C@H](NC(=O)[C@@]2(C)CCCO2)C(=O)O)cc1
–	–	–	23.1 nM	–	–	11 nM	11	COc1ccccc1-c1ccc(C[C@H](NC(=O)[C@@]2(CC(=O)N3CCOCC3)CCCO2)C(=O)O)cc1
0.61 nM	81.8 mL/min/kg	22	0.35 nM	7.8 nM	1.9%	–	–	COCCC[C@]1(C(=O)N[C@@H](Cc2ccc(-c3c(OC)cccc3OC)cc2)C(=O)O)CCCO1
